From patent publication US6875761B2 (Eisai Co., Ltd., priority 1997, dated 2005)
pKi: −log10 of the molar value. Structures can show the parent of a compound that is named as a salt.

Columns and labels:
[1] = target: T1, serotonin 1A receptor (Rattus norvegicus, UniProt P19327); assay: Binding test on [3H] 8-hydroxy-dipropylaminotetralin, hippocampus receptor fraction; parameters: species or system SD rats; settings: rat hippocampus receptor fraction, 0.5 nM [3H] 8-OH-DPAT, room temperature 30 min; read-out: 5HT1
T1 construct: To the receptor fraction of the hippocampus were added a test compound and 0.5 nM of [^3H]; 8-hydroxy-dipropylaminotetralin; from tissue; host or cells: rat hippocampus membrane fraction
T1 sequence (P19327 1-422): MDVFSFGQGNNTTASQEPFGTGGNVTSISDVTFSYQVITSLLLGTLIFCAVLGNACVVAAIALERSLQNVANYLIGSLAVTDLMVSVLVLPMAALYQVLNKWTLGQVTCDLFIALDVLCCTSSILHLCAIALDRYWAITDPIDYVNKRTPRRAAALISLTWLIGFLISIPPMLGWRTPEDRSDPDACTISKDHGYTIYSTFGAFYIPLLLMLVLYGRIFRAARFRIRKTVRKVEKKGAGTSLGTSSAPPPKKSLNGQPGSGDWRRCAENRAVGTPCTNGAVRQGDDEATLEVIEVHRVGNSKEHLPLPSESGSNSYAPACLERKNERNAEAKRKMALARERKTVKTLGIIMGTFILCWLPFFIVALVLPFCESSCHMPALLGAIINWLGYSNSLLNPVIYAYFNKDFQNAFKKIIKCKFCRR

[2] = target: T2, serotonin 2 receptor (Rattus norvegicus, UniProt P14842); assay: Binding test on [3H] ketanserin, cerebral cortex receptor fraction; parameters: species or system SD rats; settings: 0.3 nM [3H] ketanserin, 37° C. 15 min, read-out: 5HT2
T2 construct: To the receptor fraction of the cerebral cortex were added a test compound and 0.3 nM of [^3H] ketanserin; from tissue; host or cells: rat cerebral cortex membrane fraction
T2 sequence (P14842 whole entry): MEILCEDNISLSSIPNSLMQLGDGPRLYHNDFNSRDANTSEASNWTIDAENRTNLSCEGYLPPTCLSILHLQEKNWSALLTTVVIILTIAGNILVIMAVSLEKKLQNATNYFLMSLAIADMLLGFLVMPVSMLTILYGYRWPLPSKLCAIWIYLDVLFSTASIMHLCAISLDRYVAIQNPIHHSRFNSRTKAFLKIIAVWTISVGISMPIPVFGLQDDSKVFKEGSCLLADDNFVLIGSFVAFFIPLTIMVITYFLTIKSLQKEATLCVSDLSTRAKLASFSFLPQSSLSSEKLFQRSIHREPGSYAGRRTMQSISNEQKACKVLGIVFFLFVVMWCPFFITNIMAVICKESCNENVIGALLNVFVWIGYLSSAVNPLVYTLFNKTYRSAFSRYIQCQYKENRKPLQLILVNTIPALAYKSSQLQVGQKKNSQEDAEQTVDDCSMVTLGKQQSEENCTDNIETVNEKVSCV

pKi [1]	pKi [2]	SMILES
7.28	7.67	CCN1CCN(c2nc(-c3ccc(N(C)C)cc3)cc3ccccc23)CC1 [Example 66, 3-[4-(N,N-Dimethylamino)Phenyl]-1-(4-Ethylpiperazin-1-Yl)Isoquinoline Dihydrochloride]
6.97	7.22	CCN1CCN(c2nc(-c3ccc(OC)cc3)cc3ccsc23)CC1 [Example 459, 7-(4-ethylpiperazin-1-yl)-5-(4-methoxyphenyl)thieno[2,3-c]pyridine dihydrochloride]
7.14	9.05	CCN1CCN(c2nc(-c3ccc(C4=CCOCC4)cc3)cc3ccccc23)CC1 [Example 84, 3-[4-(5,6-Dihydro-2H-pyran-4-yl)phenyl]-1-(4-ethylpiperazin-1-yl)isoquinoline Hydrochloride]
7.63	7.76	CCN1CCN(c2nc(-c3ccc(OC)c(CCCO)c3)cc3ccccc23)CC1 [Example 34, 3-[3-(3-hydroxypropyl)-4-methoxyphenyl]-1-(4-ethylpiperazin-1-yl)isoquinoline hydrochloride]
7.52	8.12	CCN1CCN(c2nc(-c3ccc(CC(C)=O)cc3)cc3ccccc23)CC1 [Example 375, 1-(4-ethylpiperazin-1-yl)-3-[4-(2-oxopropyl)phenyl]isoquinoline dihydrochloride]
8.55	9.24	CCNS(=O)(=O)c1ccc(-c2cc3ccccc3c(N3CCN(CC)CC3)n2)cc1 [Example 357, 1-(4-ethylpiperazin-1-yl)-3-[4-(N-ethylsulfamoyl)phenyl]isoquinoline dihydrochloride]
7.59	8.31	CCN1CCN(c2nc(-c3ccc(OCCO)c(Cl)c3)cc3ccccc23)CC1 [Example 39, 3-[3-chloro-4-(2-hydroxyethoxy)phenyl]-1-(4-ethylpiperazin-1-yl)isoquinoline hydrochloride]
6.78	7.30	CCN1CCN(c2nc(C3CCc4ccc(OC)cc43)cc3ccccc23)CC1 (centres unmarked) [Example 114, 3-(6-Methoxyindan-1-yl)-1-(4-ethylpiperazin-1-yl)isoquinoline Oxalate]
8.10	7.62	CCN1CCN(c2nc(-c3ccc(S(=O)(=O)NCCO)cc3)cc3ccccc23)CC1 [Example 347, 1-(4-ethylpiperazin-1-yl)-3-{4-[N-(2-hydroxyethyl)sulfamoyl]phenyl}isoquinoline dihydrochloride]
7.76	7.76	CCC(=O)Nc1ccc(-c2cc3ccccc3c(N3CCN(CC)CC3)n2)cc1 [Example 69, 3-(4-Ethylcarbonylaminophenyl)-1-(4-Ethylpiperazin-1-Yl)Isoquinoline Hydrochloride]
8.01	6.94	CCN1CCN(c2nc(-c3ccc(N4CCC(O)CC4)nc3)cc3ccsc23)CC1 [Example 265, 5-[2-(4-hydroxypiperidin-1-yl)pyridin-5-yl]-7-(4-ethylpiperazin-1-yl)thieno[2,3-c]pyridine Hydrochloride]
7.26	7.71	CCN1CCN(c2nc(-c3cc(OC)cc(OC)c3)cc3ccccc23)CC1 [Example 15, 3-(3,5-dimethoxyphenyl)-1-(4-ethylpiperazin-1-yl)isoquinoline Dihydrochloride]
8.35	7.62	CCN1CCN(c2nc(-c3ccc(S(=O)(=O)N(C)C)cc3)cc3ccccc23)CC1 [Example 362, 1-(4-ethylpiperazin-1-yl)-3-[4-(N,N-dimethylsulfamoyl)phenyl]isoquinoline dihydrochloride]
8.21	7.83	CCN1CCN(c2nc(-c3ccc(S(C)(=O)=O)cc3)cc3ccccc23)CC1 [Example 342, 1-(4-ethylpiperazin-1-yl)-3-(4-methylsulfonylphenyl)isoquinoline dihydrochloride]
8.96	8.80	CCN1CCN(c2nc(-c3ccc(CNS(=O)(=O)CC)c(Cl)c3)cc3ccccc23)CC1 [Example 91, 3-(3-Chloro-4-ethylsulfonylaminomethylphenyl)-1-(4-ethylpiperazin-1-yl)isoquinoline Hydrochloride]
8.19	7.71	CCN1CCN(c2nc(/C=C/c3ccccc3OCCO)cc3ccoc23)CC1 [Example 308, oxalate]
7.11	8.59	CCN1CCN(c2nc(/C=C(\C)c3ccc(N4CCOCC4)cc3)cc3ccccc23)CC1 [Example 206, 3-{(E)-2-Methyl-2-[4-(4-Morpholinyl)Phenyl]Ethenyl}-1-(4-Ethylpiperazin-1-Yl)Isoquinoline Oxalate]
7.68	8.66	CCC(F)c1ccc(-c2cc3ccccc3c(N3CCN(CC)CC3)n2)cc1 (centres unmarked) [Example 5, 1-(4-ethylpiperazin-1-yl)-3-[4-(1-fluoropropyl)phenyl]isoquinoline Hydrochloride]
7.57	7.10	CCN1CCN(c2nc(-c3ccc(OC)cc3)cc3cccnc23)CC1 [Example 244, 8-(4-ethylpiperazin-1-yl)-6-(4-methoxyphenyl)pyrido[2,3-c]pyridine Hydrochloride]
7.39	8.37	CCN1CCN(c2nc(-c3cc(F)c(OCCF)c(F)c3)cc3ccccc23)CC1 [Example 371, 1-(4-ethylpiperazin-1-yl)-3-[3,5-difluoro-4-(2-fluoroethoxy)phenyl]isoquinoline dihydrochloride]
7.27	10.22	CCN1CCN(c2nc(-c3ccc(OC)c(CCCO)c3)cc3ccsc23)CC1 [Example 261, 5-[3-(3-hydroxypropyl)-4-methoxyphenyl]-7-(4-ethylpiperazin-1-yl)thieno[2,3-c]pyridine Oxalate]
7.50	7.13	CCN1CCN(c2nc(-c3cccc(OCCO)c3)cc3ccccc23)CC1 [Example 329, 1-(4-Ethylpiperazin-1-yl)-3-[3-(2-hydroxyethoxy)phenyl]isoquinoline dihydrochloride]
7.67	8.70	CCN1CCN(c2nc(C#Cc3ccc(OC)cc3OC)cc3ccccc23)CC1 [Example 185, 1-(1-Ethylpiperazin-4-Yl)-3-(2,4-Dimethoxyphenylethynyl)Isoquinoline Dihydrochloride]
8.32	7.91	CCN1CCN(c2nc(-c3ccc(CCC(C)OC)nc3)cc3ccccc23)CC1 (centres unmarked) [Example 144, 1-(1-Ethylpiperazin-4-yl)-3-[2-(3-Methoxybutyl)Pyridin-5-yl]Isoquinoline Oxalate]
7.43	8.32	CCN1CCN(c2nc(-c3ccc(C4COCCO4)cc3)cc3ccccc23)CC1 (centres unmarked) [Example 395, 1-(4-Ethylpiperazin-1-yl)-3-[4-(1,4-Dioxan-2-yl)Phenyl]Isoquinoline Dihydrochloride]
7.90	8.25	CCN1CCN(c2nc(-c3ccc(N4CCN(C(C)=O)CC4)cc3)cc3ccccc23)CC1 [Example 100, 3-[4-(4-Acetylpiperazin-1-yl)phenyl]-1-(4-ethylpiperazin-1-yl)isoquinoline Trihydrochloride]

SMILES	pKi [1]	pKi [2]
CCN1CCN(c2nc(N3CCN(c4ccccn4)CC3)cc3ccccc23)CC1 [Example 159, 1-(1-ethylpiperazin-4-yl)-3-[1-(2-pyridyl)piperazin-4-yl]isoquinoline]	9.19	7.88
CCN1CCN(c2nc(-c3ccnc(Cl)c3)cc3ccccc23)CC1 [406 2-chloro, 1-(4-ethylpiperazin-1-yl)-3-(2-chloropyridin-4-yl)isoquinoline]	7.91	7.95
CCN1CCN(c2nc(-c3ccc(CCCO)cc3)cc3sccc23)CC1 [Example 465, 4-(4-ethylpiperazin-1-yl)-6-[4-(3-hydroxypropy)phenyl]thieno[3,2-c]pyridine dihydrochloride]	8.20	8.15
CCN1CCN(c2nc(-c3ccc(OCCCC(C)(C)O)cc3)cc3sccc23)CC1 [Example 292, 6-[4-(4-methyl-4-hydroxypentyloxy)phenyl]-4-(4-ethylpiperazin-1-yl)thieno[3,2-c]pyridine]	7.16	7.65
CCN1CCN(c2nc(-c3ccc(N4CCC5(CC4)OCCO5)cc3)cc3ccccc23)CC1 [Example 96, 3-[4-(4,4-Ethylenedioxypiperidin-1-yl)phenyl]-1-(4-ethylpiperazin-1-yl)isoquinoline]	6.86	10.00
CCN1CCN(c2nc(-c3ccc(N4CC[S+]([O-])CC4)nc3)cc3ccccc23)CC1 [Example 151, 1-(4-ethylpiperazin-1-yl)-3-[2-(S-oxythiomorpholin-4-yl)pyridin-5-yl]isoquinoline trihydrochloride]	8.15	7.10
CCN1CCN(c2nc(-c3ccc(OCCn4ccnc4)cc3)cc3ccccc23)CC1 [Example 56, 3-{4-[2-(1-Imidazonyl)Ethoxy]phenyl}-1-(4-Ethylpiperazin-1-Yl)Isoquinoline Hydrochloride]	7.43	7.23
CCN1CCN(c2nc(-c3ccc(C(CC(C)O)OC)cc3)cc3ccccc23)CC1 (centres unmarked) [Example 26, 3-[4-(3-hydroxy-1-methoxybutyl)phenyl]-1-(4-ethylpiperazin-1-yl)isoquinoline]	8.07	7.26
